# Source: patent US4352803A, “Novel naphthyridine derivatives, intermediates thereof, processes for preparation thereof, and use thereof” (Dainippon Pharmaceutical Co., Ltd., priority 1978, dated 1982)
# Where two headings read alike, the source gives them in different places.
# Assays:
# [1] = tested on: Salmonella enteritidis No. 1891; test: In vitro antibacterial activity (MIC), Salmonella enteritidis No. 1891; assay type: cell-based; conditions: Salmonella enterica; Salmonella enteritidis No. 1891; read-out: minimum inhibitory concentration (MIC)
# Excerpt: (§1) (MIC) (μg/ml) Method; Chemotherapy, 22(6), 1126 (1974)
# [2] = tested on: Streptococcus faecalis P-2473; test: In vitro antibacterial activity (MIC), Streptococcus faecalis P-2473; assay type: cell-based; conditions: Enterococcus faecalis
# Excerpt: as §1
# [3] = tested on: Corynebacterium pyogenes C-21; test: In vitro antibacterial activity (MIC), Corynebacterium pyogenes C-21; assay type: cell-based; conditions: Rhodococcus (subgen. Prescottella) equi, C21; Corynebacterium pyogenes C-21; read-out: minimum inhibitory concentration (MIC)
# Excerpt: as §1
# [4] = tested on: Escherichia coli NIHJ JC-2; test: In vitro antibacterial activity (MIC), Escherichia coli NIHJ JC-2; assay type: cell-based
# Excerpt: as §1
# Shigella flexneri 2a = test: In vitro antibacterial activity (MIC), Shigella flexneri 2a; assay type: cell-based; conditions: read-out: minimum inhibitory concentration (MIC)
# Excerpt: as §1
# [5] = tested on: Staphylococcus aureus 209P JC-1; test: In vitro antibacterial activity (MIC), Staphylococcus aureus 209P JC-1; assay type: cell-based; conditions: Staphylococcus aureus 209P JC-1; read-out: minimum inhibitory concentration (MIC)
# Excerpt: as §1
# [6] = tested on: Enterobacter cloacae P-2540; test: In vitro antibacterial activity (MIC), Enterobacter cloacae P-2540; assay type: cell-based
# Excerpt: as §1
# [7] = tested on: Pseudomonas aeruginosa Tsuchijima; test: In vitro antibacterial activity (MIC), Pseudomonas aeruginosa Tsuchijima; assay type: cell-based; conditions: read-out: minimum inhibitory concentration (MIC)
# Excerpt: as §1
# Escherichia coli P-140a = test: In vitro antibacterial activity (MIC), Escherichia coli P-140a; assay type: cell-based; conditions: read-out: minimum inhibitory concentration (MIC)
# Excerpt: as §1
# [8] = tested on: Salmonella typhimurium 8-9; test: In vitro antibacterial activity (MIC), Salmonella typhimurium 8-9; assay type: cell-based; conditions: Salmonella enterica; Salmonella typhimurium 8-9; read-out: minimum inhibitory concentration (MIC)
# Excerpt: as §1
# [9] = tested on: Pseudomonas aeruginosa No. 12; test: in vivo efficacy against systemic infection in mice, Pseudomonas aeruginosa No. 12; conditions: NO.12, in Mus musculus, po, 168 h
# Experimental: Male mice (ddY) weighing about 20 g
# (3) Pseudomonas aeruginosa No. 12;
# (about 5 × 10^3 cells/mouse) of a bacterial
# (§2) suspension in trypto-soy broth with 4% mucin.
# (§3) Twice, about 5 minutes and 6 hours after infection.
# The numerals in the table show ED50 (mg/kg). ED50 values were
# [10] = tested on: Pseudomonas aeruginosa No. 12; test: In vitro antibacterial activity (MIC), Pseudomonas aeruginosa No. 12; assay type: cell-based; conditions: Pseudomonas aeruginosa No. 12; read-out: minimum inhibitory concentration (MIC)
# Excerpt: as §1
# [11] = tested on: Shigella flexneri 4a P-330; test: In vitro antibacterial activity (MIC), Shigella flexneri 4a P-330; assay type: cell-based; conditions: 4AP330, read-out: minimum inhibitory concentration (MIC)
# Excerpt: as §1
# Proteus morganii Kono = test: In vitro antibacterial activity (MIC), Proteus morganii Kono; assay type: cell-based; conditions: Morganella morganii, read-out: minimum inhibitory concentration (MIC)
# Excerpt: as §1
# Escherichia coli P-5101 [12] = test: In vitro antibacterial activity (MIC), Escherichia coli P-5101; assay type: cell-based; conditions: P5101; Escherichia coli P-5101; read-out: minimum inhibitory concentration (MIC)
# Excerpt: as §1
# [13] = tested on: Staphylococcus aureus No. 50774; test: In vitro antibacterial activity (MIC), Staphylococcus aureus No. 50774; assay type: cell-based; conditions: Staphylococcus aureus No. 50774; read-out: minimum inhibitory concentration (MIC)
# Excerpt: as §1
# [14] = tested on: Serratia marcescens IFC 3736; test: In vitro antibacterial activity (MIC), Serratia marcescens IFC 3736; assay type: cell-based
# Excerpt: as §1
# [15] = tested on: Klebsiella pneumoniae No. 13; test: In vitro antibacterial activity (MIC), Klebsiella pneumoniae No. 13; assay type: cell-based; conditions: Klebsiella pneumoniae No. 13; read-out: minimum inhibitory concentration (MIC)
# Excerpt: as §1
# Proteus mirabilis P-2381 = test: In vitro antibacterial activity (MIC), Proteus mirabilis P-2381; assay type: cell-based
# Excerpt: as §1
# [16] = tested on: Pseudomonas aeruginosa No. 12; test: in vivo efficacy on the ascending kidney infection in mice; set-up: species or system mice (ddY-S); conditions: for ED50: 120 h, ascending kidney infection with Pseudomonas aeruginosa No. 12, po, mice
# Experimental: Female mice (ddY-S) weighing 22 to 30 g were anesthetized by intravenous injection of sodium pentobarbital at a dose of 50 mg/kg. Through a small suprapubic incision, the urinary bladder was exposed and then infected by injecting 0.1 ml of a 1:10,000 dilution of Pseudomonas aeruginosa No. 12 cultured for 20 hours in trypto-soy broth, using 0.25 ml syringe with 0.25 mm needle. The mice were restrained from drinking water for a period from 1 day before to 1 day after the infection and treated twice a day for 3 days starting on the day of infection. On the 5th day after infection, the kidneys were harvested for the detection of the bacteria, transversely bisected and stamped on King A Agar, which were incubated at 37° C. overnight. No bacterial finding in the kidneys was regarded as protected from the ascending kindey infection. ED50 values were calculated by probit analysis.
# Escherichia coli P-5101 [17] = test: in vivo efficacy against systemic infection in mice, Escherichia coli P-5101; conditions: P5101, in Mus musculus, po, 168 h
# Experimental: Male mice (ddY) weighing about 20 g
# Intraperitoneal infection with (about
# 9 × 10^6 cells/mouse) of a bacterial
# as §2, §3
# [18] = tested on: Staphylococcus aureus No. 50774; test: in vivo efficacy against systemic infection in mice, Staphylococcus aureus No. 50774; conditions: NO.50774, in Mus musculus, po, 336 h
# Experimental: Male mice (ddY) weighing about 20 g
# Intravenous infection with (about
# 5 × 10^8 cells/mouse) of a bacterial
# as §3
# [19] = tested on: Streptococcus pyogenes 65A; test: In vitro antibacterial activity (MIC), Streptococcus pyogenes 65A; assay type: cell-based; conditions: Streptococcus pyogenes 65A; read-out: minimum inhibitory concentration (MIC)
# Excerpt: as §1
# Plasma level in dogs = assay type: in vivo, Beagle dogs; conditions: for concentration at 2 h: 2 hr after oral 25 mg/kg; for concentration at 3 h: 3 hr after oral 25 mg/kg; for concentration at 6 h: 6 hr after oral 25 mg/kg; for concentration at 8 h: 8 hr after oral 25 mg/kg; for concentration at 10 h: 10 hr after oral 25 mg/kg
# Experimental: Two male Beagle dogs weighing 12 kg each were orally given a capsule containing one of compounds 1 and 2 at a dose of 25 mg/kg with 200 ml of milk respectively. Blood samples were taken by venipuncture from the two dogs at each 0.5, 1, 2, 3, 6, 8 and 10 hours after administration, and centrifuged individually to separate the plasma.
# Drug levels were determined by the thin-layer cup-plate method using Escherichia coli Kp as an indicator organism.
# [20] = tested on: Gram-positive bacteria and Gram-negative bacteria; test: In vitro antibacterial activity against 19 strains of bacteria (overall); assay type: cell-based; conditions: comparisons are with compounds of the invention
# Excerpt: as §1
# [21] = tested on: Gram-positive and Gram-negative bacteria; test: in vivo therapeutic efficacy against systemic infections in mice (overall); set-up: species or system mice (ddY)
# [22] = Urinary excretion in dogs; assay type: in vivo, Beagle dogs; conditions: for concentration at 24 h / dose excreted at 24 h: dog, urine, po, 25 mg/kg, urine pooled over 24 hours, oral 25 mg/kg; for dose excreted at 24 h: read-out: urinary recovery
# in vivo = conditions: mouse, in vivo, po
# Experimental: The number of dead mice was counted after 7 days, and the value of median lethal dose (LD50, mg/kg) was calculated in accordance with the Behrens-Kaerber method.
# [23] = Pseudomonas aeruginosa Tsuchijima
# [24] = IFC3736, Serratia marcescens IFC 3736, read-out: minimum inhibitory concentration (MIC)
# [25] = P2381, Proteus mirabilis P-2381, read-out: minimum inhibitory concentration (MIC)
# [26] = P2473, Streptococcus faecalis P-2473, read-out: minimum inhibitory concentration (MIC)
# [27] = NIHJJC2, Escherichia coli NIHJ JC-2, read-out: minimum inhibitory concentration (MIC)
# [28] = P2540, Enterobacter cloacae P-2540, read-out: minimum inhibitory concentration (MIC)
smiles,measurement,setting,value
"CCn1cc(C(=O)O)c(=O)c2cc(F)c(N3CCNCC3)cc21 [Compound D, 1-Ethyl-6-fluoro-1,4-dihydro-4-oxo-7-(1-piperazinyl)quinoline-3-carboxylic acid]",MIC,[1],0.05 µg/mL
same,MIC,"[2]; P2473, read-out: minimum inhibitory concentration (MIC)",3.13 µg/mL
same,MIC,[3],0.78 µg/mL
same,MIC,"[4]; Escherichia coli, NIHJJC2, read-out: minimum inhibitory concentration (MIC)",0.1 µg/mL
same,MIC,Shigella flexneri 2a,0.1 µg/mL
same,MIC,[5],0.39 µg/mL
same,MIC,"[6]; Enterobacter cloacae, P2540, read-out: minimum inhibitory concentration (MIC)",0.1 µg/mL
same,MIC,[7]; [23],0.39 µg/mL
same,MIC,Escherichia coli P-140a; Escherichia coli,0.1 µg/mL
same,MIC,[8],0.05 µg/mL
same,ED50,[9],15.5 mg/kg
same,MIC,[10],0.78 µg/mL
same,MIC,[11],0.2 µg/mL
same,MIC,Proteus morganii Kono,0.1 µg/mL
same,MIC,Escherichia coli P-5101 [12],0.05 µg/mL
same,MIC,[13],0.78 µg/mL
same,MIC,[14]; [24],0.2 µg/mL
same,MIC,[15],0.2 µg/mL
same,MIC,Proteus mirabilis P-2381; [25],0.2 µg/mL
same,ED50,[16],16.1 mg/kg
same,ED50,Escherichia coli P-5101 [17],4.7 mg/kg
same,ED50,[18],21.9 mg/kg
"C=Cn1cc(C(=O)O)c(=O)c2cc(F)c(N3CCNCC3)nc21 [Compound 2, 6-Fluoro-1,4-dihydro-4-oxo-7-(1-piperazinyl)-1-vinyl-1,8-naphthyridine-3-carboxylic acid]",MIC,[19],12.5 µg/mL
same,MIC,[1],0.05 µg/mL
same,MIC,[2]; [26],25 µg/mL
same,concentration at 2 h,"Plasma level in dogs; dog, plasma",1500 ng/mL
same,concentration at 3 h,"Plasma level in dogs; dog, plasma",2800 ng/mL
same,concentration at 6 h,"Plasma level in dogs; dog, plasma",5500 ng/mL
same,concentration at 8 h,"Plasma level in dogs; dog, plasma",5200 ng/mL
same,concentration at 10 h,"Plasma level in dogs; dog, plasma",4400 ng/mL
same,absorption in the body by oral administration (in words),Plasma level in dogs; oral 25 mg/kg,well absorbed
same,period after administration with plasma level higher than the MIC values against most bacteria,Plasma level in dogs; oral 25 mg/kg,at least 2 hours to even more than 10 hours
same,MIC,[3],1.56 µg/mL
same,MIC,[4]; [27],0.1 µg/mL
same,MIC,Shigella flexneri 2a,0.1 µg/mL
same,MIC,[5],1.56 µg/mL
same,MIC,[6]; [28],1 µg/mL
same,MIC,[7]; Pseudomonas aeruginosa,0.2 µg/mL
same,MIC,"Escherichia coli P-140a; P140A, Escherichia coli P-140a",0.1 µg/mL
same,MIC,[8],0.05 µg/mL
same,ED50,[9],2.4 mg/kg
same,MIC,[10],0.39 µg/mL
same,MIC,[11],0.2 µg/mL
same,MIC,Proteus morganii Kono; Proteus morganii Kono,0.1 µg/mL
same,antibacterial activity (in words),[20],very high antibacterial activities
same,MIC,Escherichia coli P-5101 [12],0.05 µg/mL
same,"therapeutic effect in vivo against Gram-negative bacteria, relative to compound D",[21]; Gram-negative including Pseudomonas aeruginosa,clearly better
same,"therapeutic effect against Gram-negative bacteria, relative to compound 1 or 1'","[21]; systemic infection, Gram-negative",superior
same,"therapeutic effect against Gram-negative bacteria, relative to compounds A, C, E, F, G, H and J","[21]; systemic infection, Gram-negative, especially Pseudomonas aeruginosa",better therapeutic effects
same,"therapeutic effect against Gram-positive bacteria, relative to compound 1 or 1'","[21]; systemic infection, Gram-positive",inferior
same,MIC,[13],3.13 µg/mL
same,MIC,"[14]; Serratia marcescens, IFC3736, read-out: minimum inhibitory concentration (MIC)",0.2 µg/mL
same,urinary excretion (in words),[22]; 24 hours,fairly good
same,concentration at 24 h,[22],326000 ng/mL
same,dose excreted at 24 h,[22],29.4%
same,MIC,[15],0.1 µg/mL
same,MIC,"Proteus mirabilis P-2381; Proteus mirabilis, P2381, read-out: minimum inhibitory concentration (MIC)",0.2 µg/mL
same,ED50,[16],0.56 mg/kg
same,therapeutic effect against ascending kidney infection (in words),"[16]; compounds 1 and 2 (1, 1' and 2 elsewhere in the source) compared with compound D",clearly better than that of compound D
same,ED50,Escherichia coli P-5101 [17],1.3 mg/kg
same,LD50 at 168 h,in vivo,> 4000 mg/kg
same,ED50,[18],33.4 mg/kg
CCn1cc(C(=O)O)c(=O)c2cc(F)c(N3CCNCC3)nc21 [Compound 1],MIC,[19],12.5 µg/mL
same,MIC,[1],0.1 µg/mL
same,MIC,[2]; [26],12.5 µg/mL
same,concentration at 0.5 h,"Plasma level in dogs; dog, plasma, 0.5 hr after oral 25 mg/kg, nd: nondetective",600 ng/mL
same,concentration at 1 h,"Plasma level in dogs; dog, plasma, 1 hr after oral 25 mg/kg, nd: nondetective",2400 ng/mL
same,concentration at 2 h,"Plasma level in dogs; dog, plasma",5500 ng/mL
same,concentration at 3 h,"Plasma level in dogs; dog, plasma",5900 ng/mL
same,concentration at 6 h,"Plasma level in dogs; dog, plasma",4200 ng/mL
same,concentration at 8 h,"Plasma level in dogs; dog, plasma",3700 ng/mL
same,concentration at 10 h,"Plasma level in dogs; dog, plasma",2400 ng/mL
same,MIC,[3],1.56 µg/mL
same,MIC,[4]; [27],0.2 µg/mL
same,MIC,Shigella flexneri 2a,0.2 µg/mL
same,MIC,[5],0.78 µg/mL
same,MIC,[6]; [28],0.2 µg/mL
same,MIC,[7]; [23],0.39 µg/mL
same,MIC,"Escherichia coli P-140a; P140A, Escherichia coli P-140a",0.2 µg/mL
same,MIC,[8],0.1 µg/mL
same,ED50,[9],9 mg/kg
same,MIC,[10],0.78 µg/mL
same,MIC,[11],0.39 µg/mL
same,MIC,Proteus morganii Kono; Proteus morganii Kono,0.2 µg/mL
same,MIC,Escherichia coli P-5101 [12],0.1 µg/mL
same,MIC,[13],0.78 µg/mL
same,MIC,[14]; [24],0.39 µg/mL
same,concentration at 24 h,[22],606000 ng/mL
same,dose excreted at 24 h,[22],40.7%
same,MIC,[15],0.2 µg/mL
same,MIC,Proteus mirabilis P-2381; [25],0.39 µg/mL
same,ED50,[16],2.4 mg/kg
same,ED50,Escherichia coli P-5101 [17],1.8 mg/kg
same,LD50 at 168 h,in vivo,> 4000 mg/kg
same,ED50,[18],10 mg/kg
